Assays:
BMP2 mRNA = assay: qPCR osteogenic gene expression in rat calvarial osteoblast; type: cell-based; conditions: mRNA by qPCR, 48 h, active concentration of the compounds
Runx2 mRNA = assay: as above; type: cell-based; conditions: mRNA by qPCR, 48 h, active concentration of the compounds
[1] = test system: Rat calvarial osteoblasts (RCO); assay: Alkaline phosphatase (ALP) assay, osteoblast differentiation; type: cell-based; conditions: 48 h, ALP activity
Procedure: Calvaria from ten to twelve 1-2 day old rat pups were harvested, cleaned, and subjected to five sequential enzymatic digestions (0.1% diaspase and 0.1% collagenase I) of 10-15 min each. Cells from second to fifth digestion were collected, centrifuged, re-suspended and cultured in α-MEM containing 10% fetal bovine serum (FBS) and 1% penicillin/streptomycin (complete growth medium).
For ALP assay, RCO were trypsinized at 80% confluence and 2×10^3 cells/well were seeded onto 24-well plates. Cells were treated with different compounds isolated from extract & vehicle for 48 h in α-MEM supplemented with 10 mM β-glycerophosphate, […] and 1% penicillin/streptomycin (osteoblast differentiation medium).
At the end of the experiment, cells were washed with PBS, freeze fractured by placing the plates at −70° C. for 15 minutes followed by bringing to room temperature. ALP activity was measured by adding 100 µl p-nitrophenylphosphate buffer (2 mg/ml pNPP and 0.25 mM MgCl2 in 1 M diethanolamine). The absorption was measured at 405 nm with a microplate reader.

[2] = rat, in vivo, 250 mg/kg
Procedure: LC-MS/MS-API 4000 (Q-TRAP) triple quadrupole (AB-SCIEX, Toronto, Canada). The mass spectrometer was operated using an electrospray atmospheric pressure ionization source in positive ion mode.
a) Fingerprinting of 219/C002 Extract
Primary stock: 1 mg/mL in DMSO
Secondary stock: 50 ng/mL in Methanol
Continuous injection at 10 μL/min from secondary stock.
b) Fingerprinting of Blank Rat Plasma:
Blood was collected from overnight fasted rats and plasma was seperated. Plasma was precipitated with methanol (1:5 v/v), vortexed and centrifuged. The supernatant was collected and diluted with methanol (1:10 v/v). Continuous injection at 10 μL/min
c) Fingerprinting of 250 mg/kg (Oral) 219/C002 Treated Rat Plasma
Overnight fasted rats were administered 250 mg/kg 219/C002 extract suspension orally. Blood was collected after 45 min and plasma was separated. Plasma was precipitated with methanol (1:5 v/v), vortexed and centrifuged. The supernatant was collected and diluted with methanol (1:10 v/v). Continuous injection into the column at 10 μL/min.
The mass spectrometer [LC-MS/MS-API 4000 (Q-TRAP) triple quadrupole (AB-SCIEX, Toronto, Canada)] was used for the assay. Overnight fasted rats were administered 250 mg/kg extract suspension orally. Blood was collected after 45 min and plasma was separated. Plasma was precipitated with methanol, vortexed and centrifuged. The supernatant was collected and diluted with methanol. Continuous injection at 10 μL/min was done for extract, blank plasma and extract treated plasma.

[3] = test system: type 1 collagen (col1) mRNA; assay: qPCR osteogenic gene expression in rat calvarial osteoblast; type: cell-based; conditions: mRNA by qPCR, 48 h, active concentration of the compounds
osteopenic mice = assay: Osteopenic (OVX) mice model; type: in vivo, balb/c mice
Procedure: 50 adult female balb/c mice (20±3 g, 10-12 months) underwent either sham surgery or ovariectomy (OVX). 6 weeks post-surgery, mice were scanned using μCT to ensure development of osteopenia. Treatments of 219/[…] (5 mg/kg), 219/[…] (1 mg/kg and 5 mg/kg), PTH (40 μg/kg) and vehicle (water) were given to OVX mice with osteopenia for another 6 weeks, and vehicle treatment was given to sham operated mice for the same duration (n=10/group). After 6 weeks all mice were sacrificed and bones were collected for further experiment. A high-resolution X-ray micro-computed tomographic (μCT) for two-dimensional (2D) and three-dimensional (3D) assessment of bones (excised bones) were carried out using a Sky Scan 1076 μCT scanner (SkyScan, Ltd, Kartuizersweg, Kontich, Belgium). Briefly, after scanning bone samples at a nominal resolution (pixels) of 9 μm, cross-sectional reconstruction was made using SkyScanNrecon software based on a modified Feldkamp algorithm. To analyze trabecular bone, region of interest was drawn on a total of 100 slices in the region of secondary spongiosa situated 1.5 mm away from the distal border of growth plate (GP) excluding primary spongiosa and cortical bone. Quantification was done by employing Batman software encumbered with trabecular (3D) and cortical (2D) bone programs. Using μCT scans, trabecular bone mineral density (BMD) of femurs was determined from the volume of interest made for cortical and trabecular region, respectively. […] Bone mechanical strength was examined by three-point bending of femur diaphysis with bone strength tester TK […] (Muromachi Kikai Co. Ltd, Tokyo, Japan).

[4] = test system: MP treated animals (adult male SD rats); assay: MP induced secondary osteoporosis model; type: in vivo, rat; conditions: MP 5 mg/Kg s.c. 1 month, MP alone or MP+219/C002 250 mg/kg, 219/F005 100 mg/kg, 219/F005-F 50 mg/kg
Procedure: 50 adult male SD rats (260±20 g, 8-10 months) were divided into 5 groups. 5 mg/Kg methylprednisolone was administered subcutaneously for 1 month to induce osteoporosis. 219/C002 (250 mg/kg), 219/F005 (100 mg/Kg), 219/F005-F (50 mg/kg) treatment were given to check the efficacy of the extract and its different fraction along with methylprednisolone (n=10/group). After 1 month all rats were sacrificed and bones were collected for further experiment.
A high-resolution X-ray micro-computed tomographic (μCT) for two-dimensional (2D) and three-dimensional (3D) assessment of bones (excised bones) were carried out using a Sky Scan 1076 μCT scanner (SkyScan, Ltd, Kartuizersweg, Kontich, Belgium). Briefly, after scanning bone samples at a nominal resolution (pixels) of 9 μm, cross-sectional reconstruction was made using SkyScanNrecon software based on a modified Feldkamp algorithm. To analyze trabecular bone, region of interest was drawn on a total of 100 slices in the region of secondary spongiosa situated 1.5 mm away from the distal border of growth plate (GP) excluding primary spongiosa and cortical bone. Quantification was done by employing Batman software encumbered with trabecular (3D) and cortical (2D) bone programs. Using μCT scans, trabecular bone mineral density (BMD) of femurs was determined from the volume of interest made for cortical and trabecular region, respectively. For calibration, hydroxyl apatite phantom rods of 4 mm of diameter with known BMD (0.25 g/cm^3 and 0.75 g/cm^3) were employed.
Animals were kept in metabolic cages without food but with respective treatment and ad libitum water. Fasting serum samples were collected after 24 h. Serumprocollagen type I N-terminal propeptide (PINP) levels were determined by ELISA (MyBioSource, USA.), following the manufacturer's protocols.
Bone mechanical strength was examined by three-point bending of femur diaphysis with bone strength tester TK 252C (Muromachi Kikai Co. Ltd, Tokyo, Japan).

SMILES	RunX2 expression (Runx2 mRNA)	osteogenic concentration [1]	oral absorption: detection in plasma [2]	Col1 expression [3]	other results
O=c1cc(-c2ccc(O)cc2)oc2cc(O)c([C@@H]3O[C@H](CO)[C@@H](O)[C@H](O)[C@H]3O)c(O)c12 [219/K017, Isovitexin]	promoted	(1 μM)	detected in extract and in extract-treated rat plasma but not in blank rat plasma	promoted	BMP2 expression (BMP2 mRNA): promoted BMP2 expression; femur trabecular microarchitecture (BMD, BV/TV) (osteopenic mice; 5 mg/Kg, 6 weeks): completely restored femur trabecular microarchitecture; bone strength of femur, higher than with 219/K007 (apigenin) treatment (osteopenic mice; 6 weeks treatment): 80%; femur cortical strength (three-point bending) (osteopenic mice; 6 weeks treatment): restored femur cortical strength; total bone volume of femur, higher than with 219/K007 (apigenin) treatment (osteopenic mice; 6 weeks treatment): 72%
O=c1cc(-c2ccc(O)cc2)oc2cc(O)ccc12 [219/K009, 7,4′-dihydroxy flavone]	promoted	(10 nM)	detected in extract and in extract-treated rat plasma but not in blank rat plasma	promoted	
C[C@H]1C[C@@H]2[C@H]([C@@H](O)C[C@@]3(C)[C@H]2CC[C@]3(O)C(=O)CO)[C@@]2(C)C=CC(=O)C=C12 [MP, Methylprednisolone]					BMD ([4]; mean, n=10): 0.281 gm-HA/cm^3; BV/TV ([4]; mean, n=10): 18.33%; Serum PINP ([4]; mean, n=10): 50.17 ng/mL; Energy ([4]; femur three-point bending): 75.67 mJ; Max power ([4]; femur three-point bending): 82.17 N; Stiffness ([4]; femur three-point bending): 108.17 N/mm
O=c1cc(-c2ccc(O)c(O)c2)oc2cc(O)ccc12 [219/K011, 7,3′,4′-trihydroxy-flavone]	promoted	(10 nM)		promoted	BMP2 expression (BMP2 mRNA): promoted BMP2 expression
O=C(O)c1ccccn1 [Picolonic acid]			detected in extract and in extract-treated rat plasma but not in blank rat plasma		
Cc1cc(O)c2c(c1)C(=O)c1cc(O)cc(O)c1C2=O [219/K012, Emodin]		(10 nM)			
O=c1cc(-c2ccc(O)c(O)c2)oc2cc(O)cc(O)c12 [219/K010, Luteolin]		(1 nM)			
O=c1cc(-c2ccc(O)cc2)oc2cc(O)cc(O)c12 [219/K007, Apigenin]	promoted	(1 μM)	detected in extract and in extract-treated rat plasma but not in blank rat plasma	promoted	femur cortical strength (three-point bending) (osteopenic mice; 6 weeks treatment): partially improve cortical strength
